{"source": "patent US9533975B2", "about": "“Dual-action, unnatural proline-rich peptides as antibiotic agents and methods thereof” (Purdue Research Foundation, priority 2014, dated 2017)", "key": {"[1]": {"experiment": "in vitro", "details": "human"}, "[2]": {"test_system": "human red blood cells (hRBCs)", "details": "at 5 'LIM"}}}
{"molecule": "CC[C@H](C)[C@H](NC(=O)CN)C(=O)NCC(=O)N[C@@H](C)C(=O)N[C@H](C(=O)N[C@@H](CC(C)C)C(=O)N[C@@H](CCCCN)C(=O)N[C@H](C(=O)N[C@@H](CC(C)C)C(=O)N[C@H](C(=O)N[C@H](C(=O)NCC(=O)N[C@@H](CC(C)C)C(=O)N1CCC[C@H]1C(=O)N[C@@H](C)C(=O)N[C@@H](CC(C)C)C(=O)N[C@H](C(=O)N[C@@H](CO)C(=O)N[C@@H](Cc1c[nH]c2ccccc12)C(=O)N[C@H](C(=O)N[C@@H](CCCCN)C(=O)N[C@@H](CCCNC(=N)N)C(=O)N[C@@H](CCCCN)C(=O)N[C@@H](CCCNC(=N)N)C(=O)N[C@@H](CCC(N)=O)C(=O)N[C@@H](CCC(N)=O)C(N)=O)[C@@H](C)CC)[C@@H](C)CC)[C@@H](C)O)[C@@H](C)O)C(C)C)C(C)C", "note": "[Melittin]", "values": [{"measurement": "hemolysis at 5 µM", "setting": "[1]", "result": "> 80", "unit": "%"}, {"measurement": "hemolytic activity", "setting": "[2]", "result": "highly hemolytic"}]}
